In this experiment the target is T1, PpBBE1 (Physcomitrium patens, UniProt A0A2K1JP57, D396N).
T1 construct: gene PHYPA_015719; full-length precursor 501 residues; native signal peptide (predicted 1-30) removed; C-terminal octahistidine tag; secreted from Komagataella phaffii KM71H (pPICZalpha, PDI coexpressed); ca. 54 kDa; monomer; bicovalent FAD
As to the kind of experiment: X-ray crystal structure, […] A. The experiment is classed as binding. The note with it: covalent; bicovalent via 8alpha to H111 and C6 to C172.

T1 sequence (A0A2K1JP57 entry or part of it D396N): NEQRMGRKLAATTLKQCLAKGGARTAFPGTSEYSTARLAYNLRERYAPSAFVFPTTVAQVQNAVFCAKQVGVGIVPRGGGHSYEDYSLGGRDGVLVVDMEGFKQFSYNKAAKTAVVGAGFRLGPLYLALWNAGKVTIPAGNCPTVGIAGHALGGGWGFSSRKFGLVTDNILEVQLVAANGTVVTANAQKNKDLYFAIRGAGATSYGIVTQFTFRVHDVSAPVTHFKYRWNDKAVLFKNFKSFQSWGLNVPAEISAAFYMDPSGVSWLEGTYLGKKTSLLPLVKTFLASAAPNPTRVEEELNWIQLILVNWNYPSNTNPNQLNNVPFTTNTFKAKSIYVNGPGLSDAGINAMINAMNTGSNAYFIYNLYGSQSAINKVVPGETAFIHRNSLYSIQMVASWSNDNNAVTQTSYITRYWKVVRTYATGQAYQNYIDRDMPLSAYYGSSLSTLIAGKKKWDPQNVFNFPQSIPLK

On to `Cc1cc2nc3c(=O)[nH]c(=O)nc-3n(C[C@H](O)[C@H](O)[C@H](O)COP(=O)(O)OP(=O)(O)OC[C@H]3O[C@@H](n4cnc5c(N)ncnc54)[C@H](O)[C@@H]3O)c2cc1C` [FAD], for which the “X-ray crystal structure, 2.6 A” value is on record as “confirmed the bicovalent linkage of the flavin cofactor”.

These data come from article PMC6001459 (The Febs Journal, 2018).
